Measurements from ChEMBL document CHEMBL4376837, “New Dual Small Molecules for Alzheimer's Disease Therapy Combining Histamine H3 Receptor (H3R) Antagonism and Calcium Channels Blockade with Additional Cholinesterase Inhibition” (J Med Chem, 2019).
Activity calls are given as the source filed them. No cut-off for these calls is given here.

Columns and labels:
Mus musculus [1] = assay: Neuroprotective activity in mouse model of LPS-induced induced memory impairment assessed as improvement in discrimination index at 1 mg/kg, ip by novel object recognition test; assay type: functional, organism-based
[2] = Antioxidant activity assessed as Trolox equivalents incubated for 15 mins by fluorescein based ORAC-FL assay; assay type: functional
[3] = molecular target: Voltage-gated L-type calcium channel (Homo sapiens, UniProt Q13936+Q13698+Q01668+O60840); assay: Inhibition of voltage-dependent L-type calcium channel in 70 mM K+-induced human SH-SY5Y cells assessed as blocking of depolarization-induced Ca2+ uptake by Fluo-4/AM dye based fluorescence microplate reader assay; assay type: cell-based
Histamine H3 receptor = Histamine H3 receptor (Homo sapiens, UniProt Q9Y5N1); assay: Displacement of [3H]-N-alpha-methylhistamine from human H3 receptor expressed in HEK293 cell membranes incubated for 60 mins by scintillation counting method; set-up: concentration or dose not given beside the values
Chain of Histamine H3 receptor (Q9Y5N1 whole entry): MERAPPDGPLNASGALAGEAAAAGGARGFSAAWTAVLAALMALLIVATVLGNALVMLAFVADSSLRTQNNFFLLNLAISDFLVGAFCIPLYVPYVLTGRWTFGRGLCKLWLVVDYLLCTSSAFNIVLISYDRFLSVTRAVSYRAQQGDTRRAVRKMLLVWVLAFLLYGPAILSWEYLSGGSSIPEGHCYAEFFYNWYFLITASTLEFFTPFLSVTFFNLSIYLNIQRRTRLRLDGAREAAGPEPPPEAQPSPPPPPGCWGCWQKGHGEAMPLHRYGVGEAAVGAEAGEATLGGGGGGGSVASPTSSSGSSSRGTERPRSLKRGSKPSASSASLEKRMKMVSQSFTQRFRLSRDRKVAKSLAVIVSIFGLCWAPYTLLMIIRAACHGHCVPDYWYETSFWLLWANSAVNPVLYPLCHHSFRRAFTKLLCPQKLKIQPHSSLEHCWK

[4] = Inhibition of human recombinant AChE using acetylthiocholine iodide substrate by Ellman's protocol based assay
Aorta [5] = assay: Vasodilating activity in Wistar rat endothelium-denuded aortic rings preconstricted with 100 mM KCl assessed as vasorelaxation at 1 nM relative to control; set-up: scale not given: the % may be the effect or the level left; conditions: 0.001 µM
Aorta [6] = assay: Vasodilating activity in Wistar rat endothelium-denuded aortic rings preconstricted with 100 mM KCl assessed as vasorelaxation at 10 nM relative to control; set-up: scale not given: the % may be the effect or the level left; conditions: 0.01 µM
Aorta [7] = assay: Vasodilating activity in Wistar rat endothelium-denuded aortic rings preconstricted with 100 mM KCl assessed as vasorelaxation at 0.1 nM relative to control; set-up: scale not given: the % may be the effect or the level left; conditions: 0.0001 µM
Cholinesterase = Cholinesterase (Homo sapiens, UniProt P06276); assay: Inhibition of BuChE in human plasma using butyrylthiocholine iodide substrate by Ellman's protocol based assay; assay type: cell-free
Chain of Cholinesterase (P06276 whole entry): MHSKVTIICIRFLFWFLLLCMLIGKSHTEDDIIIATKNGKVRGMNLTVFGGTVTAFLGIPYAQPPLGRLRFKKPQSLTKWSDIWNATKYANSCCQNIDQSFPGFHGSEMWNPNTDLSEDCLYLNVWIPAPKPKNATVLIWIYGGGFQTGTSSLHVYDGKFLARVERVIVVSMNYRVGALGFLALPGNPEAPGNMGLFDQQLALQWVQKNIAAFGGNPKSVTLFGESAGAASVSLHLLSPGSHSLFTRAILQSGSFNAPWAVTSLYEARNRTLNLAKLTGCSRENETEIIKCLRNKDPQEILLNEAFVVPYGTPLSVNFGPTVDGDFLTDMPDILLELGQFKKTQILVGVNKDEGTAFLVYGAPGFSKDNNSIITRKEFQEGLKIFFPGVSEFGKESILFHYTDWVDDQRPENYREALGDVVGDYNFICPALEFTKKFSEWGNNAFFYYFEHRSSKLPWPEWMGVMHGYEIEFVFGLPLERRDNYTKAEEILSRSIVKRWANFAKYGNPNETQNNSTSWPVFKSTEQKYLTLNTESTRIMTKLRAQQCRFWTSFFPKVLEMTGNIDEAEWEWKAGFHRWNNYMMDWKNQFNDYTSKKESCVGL

Mus musculus [8] = assay: Neuroprotective activity in mouse model of LPS-induced induced memory impairment assessed as improvement in discrimination index at 10 mg/kg, ip by novel object recognition test; assay type: functional, organism-based
SH-SY5Y [9] = assay: Neuroprotective activity against okadaic acid-induced cytotoxicity in human SH-SY5Y cells assessed as protection against cell death at 0.3 uM incubated for 24 hrs by MTT assay relative to control; assay type: functional
SH-SY5Y [10] = assay: Neuroprotective activity against Rotenone/Oligomycin A-induced cytotoxicity in human SH-SY5Y cells assessed as protection against cell death at 0.3 uM incubated for 24 hrs by MTT assay relative to control; assay type: functional
SH-SY5Y [11] = assay: Neuroprotective activity against okadaic acid-induced cytotoxicity in human SH-SY5Y cells assessed as protection against cell death at 0.1 uM incubated for 24 hrs by MTT assay relative to control; assay type: functional
SH-SY5Y [12] = assay: Neuroprotective activity against Rotenone/Oligomycin A-induced cytotoxicity in human SH-SY5Y cells assessed as protection against cell death at 3 uM incubated for 24 hrs by MTT assay relative to control; assay type: functional
[13] = molecular target: Histamine H1 receptor (Homo sapiens) (UniProt P35367); assay: Displacement of [3H]-Pyrilamine from human H1 receptor expressed in CHO-K1 cell membranes incubated for 60 mins by scintillation counting method
Chain of Histamine H1 receptor (Homo sapiens) (P35367 whole entry): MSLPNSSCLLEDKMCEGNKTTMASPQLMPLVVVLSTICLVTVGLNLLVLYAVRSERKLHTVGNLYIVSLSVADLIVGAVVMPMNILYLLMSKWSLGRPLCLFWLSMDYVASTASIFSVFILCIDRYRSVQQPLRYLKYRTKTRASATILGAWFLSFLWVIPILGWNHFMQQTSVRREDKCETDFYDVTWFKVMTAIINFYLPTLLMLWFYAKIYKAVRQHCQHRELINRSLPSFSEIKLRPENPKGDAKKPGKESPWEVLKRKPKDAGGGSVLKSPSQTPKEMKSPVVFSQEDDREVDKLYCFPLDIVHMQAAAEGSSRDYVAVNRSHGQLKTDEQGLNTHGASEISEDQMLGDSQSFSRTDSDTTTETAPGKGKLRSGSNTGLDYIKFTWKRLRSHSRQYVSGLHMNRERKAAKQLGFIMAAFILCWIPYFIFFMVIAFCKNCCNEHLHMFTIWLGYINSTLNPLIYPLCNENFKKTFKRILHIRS

SH-SY5Y [14] = assay: Neuroprotective activity against Rotenone/Oligomycin A-induced cytotoxicity in human SH-SY5Y cells assessed as protection against cell death at 1 uM incubated for 24 hrs by MTT assay relative to control; assay type: functional
SH-SY5Y [15] = assay: Neuroprotective activity against Rotenone/Oligomycin A-induced cytotoxicity in human SH-SY5Y cells assessed as protection against cell death at 0.1 uM incubated for 24 hrs by MTT assay relative to control; assay type: functional
SH-SY5Y [16] = assay: Neuroprotective activity against okadaic acid-induced cytotoxicity in human SH-SY5Y cells assessed as protection against cell death at 3 uM incubated for 24 hrs by MTT assay relative to control; assay type: functional
[17] = Permeability at 100 uM by PAMPA method
Histamine H4 receptor = Histamine H4 receptor (Homo sapiens, UniProt Q9H3N8); assay: Antagonist activity at human H4 receptor expressed in CHO-K1 cells co-expressing G protein alpha16 assessed as inhibition of histamine-induced calcium mobilization incubated for 16 hrs by aequorin-based functional assay; assay type: cell-based
Chain of Histamine H4 receptor (Q9H3N8 whole entry): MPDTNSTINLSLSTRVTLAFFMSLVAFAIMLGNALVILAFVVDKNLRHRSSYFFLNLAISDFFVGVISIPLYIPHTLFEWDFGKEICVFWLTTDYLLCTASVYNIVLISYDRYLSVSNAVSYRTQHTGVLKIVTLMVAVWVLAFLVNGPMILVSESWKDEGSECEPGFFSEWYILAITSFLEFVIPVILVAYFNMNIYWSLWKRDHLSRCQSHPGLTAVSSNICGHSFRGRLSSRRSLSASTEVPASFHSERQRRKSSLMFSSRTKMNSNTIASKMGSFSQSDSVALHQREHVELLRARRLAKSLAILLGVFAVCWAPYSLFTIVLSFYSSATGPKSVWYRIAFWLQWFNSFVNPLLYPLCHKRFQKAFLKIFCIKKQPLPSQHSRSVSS

SH-SY5Y [18] = assay: Neuroprotective activity against okadaic acid-induced cytotoxicity in human SH-SY5Y cells assessed as protection against cell death at 1 uM incubated for 24 hrs by MTT assay relative to control; assay type: functional

| Compound | Activity [2] [equiv] | inhibition (Histamine H3 receptor) [%] | inhibition [4] | Ki (Histamine H3 receptor) [nM] | further results |
| --- | --- | --- | --- | --- | --- |
| COc1cc2c(cc1OC)C(=O)C(CC1CCN(Cc3ccccc3)CC1)C2 (stereo not given) | – | – | – | – | Activity (Mus musculus [1]): Active |
| CCOC(=O)C1=C(C)NC(C)=C(C(=O)OCC)C1c1ccc(OCCN2CCCCC2)c(Br)c1 | 2.2 | 37 | inactive | – | IC50 [3]: 2800 nM |
| CCOC(=O)C1=C(C)NC(C)=C(C(=O)OCC)C1c1ccc(OCCN2CCCCC2)cc1 | 2.4 | 18 | inactive | – | – |
| CCOC(=O)C1=C(C)NC(C)=C(C(=O)OCC)C1c1ccc(OCCCN2CCCCC2)cc1 | 2.3 | – | inactive | 40 | – |
| COC(=O)C1=C(C)NC(C)=C(C(=O)OC)C1c1ccccc1[N+](=O)[O-] [NIFEDIPINE] | – | – | – | – | Activity (Aorta [5]; Aorta): 37%; Activity (Aorta [6]; Aorta): 81%; Activity (Aorta [7]; Aorta): 12% |
| CCOC(=O)C1=C(C)NC(C)=C(C(=O)OCC)C1c1ccc(OCCN2CCCCC2)c(Cl)c1 | 2.5 | 17 | inactive | – | IC50 [3]: 2900 nM |
| CCOC(=O)C1=C(C)NC(C)=C(C(=O)OCC)C1c1ccc(OCCCN2CCCCC2)c(OCC)c1 | 2.4 | – | inactive | 1620 | – |
| CCOC(=O)C1=C(C)NC(C)=C(C(=O)OCC)C1c1ccc(OCCCCCN2CCCCC2)cc1 | 3.6 | – | inactive | 565 | IC50 (Cholinesterase): 7830 nM; Activity (Aorta [5]): Non-Toxic; Activity (Mus musculus [8]): Active; Activity (SH-SY5Y [9]): inactive; Activity (Aorta [6]): 5%; Activity (SH-SY5Y [10]): 35.1%; Activity (SH-SY5Y [11]): inactive; Activity (SH-SY5Y [12]): 49.9%; inhibition [13]: inactive; Activity (SH-SY5Y [14]): 64.8%; Activity (SH-SY5Y [15]): 17%; Activity (SH-SY5Y [16]): 20.9%; Papp at 100 µM [17]: 8.6 ×10⁻⁶ cm/s; IC50 (Histamine H4 receptor): 1400 nM; Activity (SH-SY5Y [18]): 41.8%; Activity (Aorta [7]): Non-Toxic |
| CCOC(=O)C1=C(C)NC(C)=C(C(=O)OCC)C1c1ccc(OCCCN2CCCC2)cc1 | 3.5 | – | inactive | 83 | – |
| CCOC(=O)C1=C(C)NC(C)=C(C(=O)OCC)C1c1ccc(OCCN2CCCCC2)c(OC)c1 | 3.9 | < 5 | inactive | – | IC50 [3]: 26000 nM |
| COc1ccc2[nH]cc(CCNC(C)=O)c2c1 [MELATONIN] | – | – | – | – | Activity (SH-SY5Y [11]): 76%; Activity (SH-SY5Y [15]): 58.2% |
| CCOC(=O)C1=C(C)NC(C)=C(C(=O)OCC)C1c1ccc(OCCCCCN2CCCC2)cc1 | 2.8 | – | inactive | 425 | IC50 (Cholinesterase): 6070 nM; Activity (Mus musculus [8]): inactive; Activity (SH-SY5Y [9]): 8.81%; Activity (SH-SY5Y [10]): 48.9%; Activity (SH-SY5Y [11]): 7.21%; Activity (SH-SY5Y [12]): 35.4%; inhibition [13]: inactive; Activity (SH-SY5Y [14]): 52.8%; Activity (SH-SY5Y [15]): 35.5%; Activity (SH-SY5Y [16]): 16%; Papp at 100 µM [17]: 10 ×10⁻⁶ cm/s; inhibition (Histamine H4 receptor): inactive; Activity (SH-SY5Y [18]): 18.5% |
| CCOC(=O)C1=C(C)NC(C)=C(C(=O)OCC)C1c1ccc(OCCCCN2CCCC2)cc1 | 3.3 | – | inactive | 60 | IC50 (Cholinesterase): 7220 nM |
| CCOC(=O)C1=C(C)NC(C)=C(C(=O)OCC)C1c1ccc(OCCCN2CCCCC2)c(OC)c1 | 2.3 | 20 | inactive | – | – |
| CCOC(=O)C1=C(C)NC(C)=C(C(=O)OCC)C1c1ccc(OCCCCN2CCCCC2)cc1 | 2.2 | 49 | inactive | – | – |
| CCOC(=O)C1=C(C)NC(C)=C(C(=O)OCC)C1c1ccc(OCCCN2CCCC2)c(OC)c1 | 2.3 | 23 | inactive | – | – |
| CCOC(=O)C1=C(C)NC(C)=C(C(=O)OCC)C1c1ccc(OCCN2CCCCCC2)c(Cl)c1 | 2.4 | 19 | inactive | – | IC50 [3]: 4000 nM |
| CCOC(=O)C1=C(C)NC(C)=C(C(=O)OCC)C1c1ccc(OCCN2CCCCCC2)c(Br)c1 | 3 | 8 | inactive | – | IC50 [3]: 1500 nM |
| CCOC(=O)C1=C(C)NC(C)=C(C(=O)OCC)C1c1ccc(OCCCN2CCCC2)c(OCC)c1 | 2.8 | 19 | inactive | – | – |
| COc1cc(/C=C/C(=O)O)ccc1O | 3.7 | – | – | – | – |
